This is an account of results in US20260325608A1, “PEPTIDES FOR USE IN THE TREATMENT OF SARCOMA” (PHARIS BIOTEC GMBH, priority 2023, published 2026).

No end group written: not given here.

The test system of data set [1] is osteosarcoma. The experiment in a line: Compassionate use treatment of an osteosarcoma patient with intranasal peptide (Example 5). It is filed as in vivo. Particulars: three times a day. The protocol:
A patient suffering from osteosarcoma was treated under the terms of compassionate use.
The peptide IVRYTKKVPQVS (SEQ ID NO: 21) was provided in a citrate/bicarbonate buffer (Pharmacopoeia Europaea, Ph. Eur.), in a concentration of 1 mg/mL (1 mg of the peptide in 1 mL of the buffer). This composition was administered intranasally as a nasal spray. The nasal spray was administered three times a day (morning, noon, evening), two strokes into each nasal cavity, for six weeks.
The course of the disease/clinical picture of the patient was monitored via an immune panel measurement, once a week. In blood count measurements, the numbers of erythrocytes, thrombocytes, etc. were determined.

Data set [2] in a line: Isoelectric point of the peptide. Format: physicochemical.
Data set [3] relates to childhood sarcomas. The conditions noted are these: in vivo; cited from earlier work.

Regarding IVRYTKKVPQVS [SEQ ID NO: 21], the side effects entry in data set [1] (1 mg/mL nasal spray, six weeks) is given as “no side effects were observed”. The “regression of the tumor (MRT measurements)” value in data set [1] (1 mg/mL nasal spray, six weeks, especially in the area of the spine and the vertebral holes) was “regression of the tumor”. Also, the blood picture entry in data set [1] (after four weeks of treatment, 1 mg/mL nasal spray in citrate/bicarbonate buffer, two strokes into each nasal cavity) was “normalized”. Further, the pain entry in data set [1] (after six weeks of treatment, 1 mg/mL nasal spray, severe pain before start) is recorded as “pain-free”. Also, the “mobility of the patient” value in data set [1] (during six weeks of treatment, 1 mg/mL nasal spray, patient was unable to move before start) is on record as “restored”.
As to “LVRYTKKVPQVSTPTL [ALB408-423, LVRYTKKVPQVSTPTL]”, in data set [2], the “isoelectric point (pI)” value was 10.3.
Consider `O=P1(N(CCCl)CCCl)NCCCO1` (stereo not shown) [cyclophosphamide], for which the anti-tumor efficacy entry in data set [3] was “good anti-tumor efficacy”.
